Measured values from article PMC5812297, “Specificity and Application of the Lantibiotic Protease NisP” (Frontiers in Microbiology, 2018).
Ends that are not written are not given here.

What was measured:
NisP = assay: Cleavage of nisin mutants by NisP in crude supernatants or purified peptide, masses by MALDI-TOF; format: biochemical, Lactococcus lactis; settings: His-tagged purified NisP, overnight 37°C, ratio 1000:1, culture pH (4.5–5.0) or pH 6.0, MALDI-TOF
Method: Alternatively, supernatants containing nisin mutant peptides produced after induction were divided into two fractions; one in which the pH was adjusted to 6.0 and the other one where the pH was the actual fermentation pH. They were incubated overnight at 37°C with or without His-tagged purified NisP at a ratio of 1000:1. After the incubation, the supernatants were precipitated using TCA and resuspended in 1/20 volume 0.05% acetic acid. For the mutants that were produced in lower amounts, larger volumes were induced and the peptides were purified by cationic exchange chromatography as described before and separated by reverse phase chromatography using a Jupiter 4 μm Proteo 90 Å 250 × 4.6 mm C12 analytical column (Phenomenex). The column was equilibrated in 20% organic solvent (acetonitrile 0.1% TFA) before the sample injection. It was washed for 5 min before applying a linear gradient from 20 to 50% organic solvent in 20 min. 1 μl of each collected peak was used for mass-spectrometry determination.
Mass spectrometry analysis of the samples was performed by matrix-assisted laser desorption/ionization (MALDI) time-of-flight (ToF) in an ABI Voyager DE Pro (Applied Biosystems) operating in linear mode as previously described using external calibration (van Heel et al., [2013]). Briefly, 1 μl sample was spotted, dried and washed with 5 μL Milli-Q water, on the target. Next, 1 μl of α-cyano-4-hydroxycinnamic acid 5 mg/ml (Sigma-Aldrich) was spotted on the sample.
We designed a set of nisin mutants to investigate the specificity of NisP (Figure 4). For all these mutants, supernatants were collected after induction and divided into three fractions. NisP was added to two of these fractions, one maintaining the pH of the culture (4.5–5.0) and the other fraction was adjusted to pH 6.0. The third fraction was used as an untreated control. After cleavage, the masses of the peptides were monitored by MALDI-TOF (Table 2).

engineered soluble NisP = assay: Enzyme kinetic assay of NisP cleavage of prenisin variants (Lineweaver–Burk, RP-HPLC); format: biochemical, Lactococcus lactis; settings: for Kcat/Km in comparison, in words: among the four prenisin variants, or vs literature
Method: In order to investigate the substrate specificity and kinetic parameters of NisP, a set of mutants of P4-P1 was created. We used wild-type prenisin (ASPR), nis-Peng (VSLR), nis-Thrombin (AVPR), and nis-Factor Xa (IEGR) as substrates. The concentration of NisP was determined by the BCA assay with bovine serum albumin as standard. The conditions of cleavage reaction were optimized with 100 mM Tris buffer containing 5 mM CaCl2 (pH 6.0). The reaction was stopped at the indicated times adding TFA to a final concentration of 1%. The reaction was performed in 100 μl with 6.5 ng/ml NisP at 37°C. 1% TFA was added to terminate the reaction at 5 different time points (5, 15, 30, 45, and 60 min). All the samples were analyzed by analytical RP-HPLC as indicated before (Mu et al., [2015]) and measuring the absorbance at 205 nm. For each substrate concentration, the initial velocity was calculated on the basis of the peak area of released nisin vs. time. The kinetic parameters were determined by fitting the calculated enzyme activities at different substrate concentrations (ranging from 1 to 25 μM) to a linear regression curve on Lineweaver–Burk double reciprocal plot (Lineweaver and Burk, [1934]).

[1] = tested on: L. lactis NZ9000 (pNZnisP-8H); assay: Antimicrobial activity of purified prelantibiotics against NisP producing sensor strain; format: cell-based, Lactococcus lactis; settings: no NisP, data not shown
Method: Activity tests were performed by well-diffusion assay as indicated by van Heel et al. ([2013]). L. lactis NZ9000 transformed with the appropriate plasmids or Micrococcus flavus were used as sensor strains as specified in each figure. The cleavage of nisin by NisP after SDS-PAGE was monitored washing the gel according to Bhunia et al. ([1987]) and covering with an overlay of GM17 soft agar inoculated with NZ9000 (pIL3BTC pNZnisA-E3) induced with 1 ng/ml nisin. The overlay was incubated for 16 h, after which the presence of inhibition zones was evaluated.
The substrate tolerance of soluble NisP was tested using a set of different lantibiotics. These were produced using the nisin modification machinery encoded in NZ9000 (pIL3BTC pNZE3-mutant) and purified by cationic exchange chromatography. For this purpose, NZ9000 (pNZ-nisP-8H) was used as a sensor strain and tested using gallidermin (van Heel et al., [2013]) and two lantibiotics detected in the genome of Streptococcus pneumoniae, PneA1 and PneA2 encoded in the genes spr1765 and spr1766, respectively, which were heterologously expressed in L. lactis fused to the nisin leader peptide (Majchrzykiewicz et al., [2010]) (Figure 5). […] The activity was restored when a strain producing soluble NisP was employed.
Figure 5 Antimicrobial activity of purified modified lantibiotics gallidermin, 1215 and 1268 against L. lactis NZ9000 (pNZnisP-8H). […]

sensor bacteria = settings: only antimicrobial activity as evidence, ref Kuipers et al., [1995]; cited from earlier work
Source text: It was anticipated that the binding of dehydrobutyrine in position P2′ was less important than the interaction of Ile in position P1′ with a hydrophobic groove in NisP (Siezen et al., [1995]). Some mutants like I1W were previously shown to be cut by NisP using only the antimicrobial activity as evidence (Kuipers et al., [1995]). […] We could observe that an ...

prenisin = settings: cell extracts of induced E. coli, ref van der Meer et al., [1993]; cited from earlier work
Source text: During the production of nisin, the protease NisP is exported and anchored to the cell wall in a sortase-mediated manner. In previous attempts to characterize the specificity of NisP, the in vivo cleavage was based on the detection of the antimicrobial activity and the detection of mature lantibiotic compared to that of the prelantibiotic (van der Meer et al., [1994]). The activity in vitro could be confirmed using membrane preparations of cells expressing NisP bound to the cell wall, which limited the assays. Therefore, we engineered a soluble NisP variant that could facilitate this task. Our ...

[2] = 100 mM Tris 5 mM CaCl2 pH 6.0, 37°C, 6.5 ng/ml NisP, substrate 1 to 25 μM, Lineweaver–Burk, mean value ± standard deviation

For “WT Prenisin (ASPR): fully modified nisin with its leader peptide (ASPR cleavage site); inactive until leader is removed (MSTKDFNLDLVSVSKKDSGASPRITSISLCTPGCKTGALMGCNMKTATCHCSIHVSK; not fully specified (bridges); cysteine pairing not given here; also: fully modified nisin, modifications not placed; UniProt P13068 1-57, looked up)”, the “Cleavage by NisP” value (NisP) was “fully cleaved”, the “Kcat/Km (catalytic efficiency)” value (engineered soluble NisP; 100 mM Tris 5 mM CaCl2 pH 6.0, 37°C, 6.5 ng/ml NisP) was 1.71e+06 M⁻¹ s⁻¹ and the Km (engineered soluble NisP; 100 mM Tris 5 mM CaCl2 pH 6.0, 37°C, 6.5 ng/ml NisP, substrate 1 to 25 μM, 5-60 min, RP-HPLC 205 nm, Lineweaver–Burk, mean value ± standard deviation) was 0.73 ± 0.08 µM. For the same molecule, the Kcat (engineered soluble NisP; [2]) was 1.25 ± 0.07 s⁻¹, the Vmax (engineered soluble NisP; [2]) was 1.79 ± 0.10 µmol/mg/min and the “Kcat/Km in comparison, in words” value (engineered soluble NisP; listed as wild-type nisin) was “in line with previous results in literature”. The “Kcat/Km in comparison, in words” value (engineered soluble NisP; listed as wild-type prenisin (ASPR)) was “highest catalytic efficiency” and the “Antimicrobial activity in the absence of NisP” value [1] was “none of the prelantibiotics tested, not even prenisin, was active”.

In the case of “nisin I1W: Nisin I1W mutant (MSTKDFNLDLVSVSKKDSGASPRWTSISLCTPGCKTGALMGCNMKTATCHCSIHVSK; ends and bridges not checked; cysteine pairing not given here; UniProt P13068 1-57, looked up, variant I1W)”, the “Cleavage by NisP” value (NisP) is given as “fully processed” and the “Cleavage by NisP (earlier work)” value (sensor bacteria) is given as “cut by NisP”.

B1: cell wall attached NisP: full length NisP expressed in E. coli (van der Meer et al., 1993) (protein, UniProt Q07596 1-682, looked up)
chain: MKKILGFLFIVCSLGLSATVHGETTNSQQLLSNNINTELINHNSNAILSSTEGSTTDSINLGAQSPAVKSTTRTELDVTGAAKTLLQTSAVQKEMKVSLQETQVSSEFSKRDSVTNKEAVPVSKDELLEQSEVVVSTSSIQKNKILDNKKKRANFVTSSPLIKEKPSNSKDASGVIDNSASPLSYRKAKEVVSLRQPLKNQKVEAQPLLISNSSEKKASVYTNSHDFWDYQWDMKYVTNNGESYALYQPSKKISVGIIDSGIMEEHPDLSNSLGNYFKNLVPKGGFDNEEPDETGNPSDIVDKMGHGTEVAGQITANGNILGVAPGITVNIYRVFGENLSKSEWVARAIRRAADDGNKVINISAGQYLMISGSYDDGTNDYQEYLNYKSAINYATAKGSIVVAALGNDSLNIQDNQTMINFLKRFRSIKVPGKVVDAPSVFEDVIAVGGIDGYGNISDFSNIGADAIYAPAGTTANFKKYGQDKFVSQGYYLKDWLFTTANTGWYQYVYGNSFATPKVSGALALVVDKYGIKNPNQLKRFLLMNSPEVNGNRVLNIVDLLNGKNKAFSLDTDKGQDDAINHKSMENLKESRDTMKQEQDKEIQRNTNNNFSIKNDFHNISKEVISVDYNINQKMANNRNSRGAVSVRSQEILPVTGDGEDFLPALGIVCISILGILKRKTKN
modifications: full-length
For B1, the Activation of prenisin (prenisin) is listed as “could activate prenisin”.
